Source: paper PMC6199744, “Development of Chemical Proteomics for the Folateome and Analysis of the Kinetoplastid Folateome” (ACS Infectious Diseases, 2018)
“And” between values parts separate entries of the source, which are not always exact repeats. Equal entries are not always repeated. Where two headings read alike, the source gives them in different places.

Test system: L. major lysate proteins
Experiment: Multitargeted bead mixture chemoproteomics, single concentration competition, proteome-wide
Assay type: binding
Settings: for fold change / fold change relative to vehicle control: vehicle control = 1; for fold change relative to vehicle control: competition with free ligand

## Nc1nc2cccc(-c3ccccc3)c2n1Cc1ccc(Cl)c(Cl)c1 [compound 3]
  fold change vs vehicle control: 1.02 and 1.09 and 1
LINJ.05.0500 ATPASE ALPHA SUBUNIT
  fold change: 1.08
LINJ.36.4570 […] SUBUNIT
  fold change: 0.83
LMJF.10.0510 GLYCEROL-3-PHOSPHATE DEH[…] ], GLYCOSOMAL
  fold change: 0.91
LMJF.16.1610 PROHIBITIN
  fold change: 1.25
LMJF.18.1370 HEAT SHOCK PROTEIN, PUTATIVE
  fold change: 1.16
LMJF.19.0300 RNA BINDING PROTEIN, PUTATIVE
  fold change: 0.91
LMJF.21.0760 […]-ATP-ASE SUBUNIT 5, PUTATIVE
  fold change: 0.77
LMJF.22.0410 HY[…], CONSERVED
  fold change: 0.97
LMJF.25.1770 ENOYL-COA REDUCTASE, PUTATIVE
  fold change: 1.06
LMJF.26.0300 AMINOPEPTIDASE-LIKE PROTEIN
  fold change: 0.7
LMJF.26.2560 HY[…], CONSERVED
  fold change: 1.1
LMJF.27.1810 GLYCOSOMAL PHOSPHOENOLPYRUVATE CARBOXYKINASE, PUTATIVE
  fold change: 1.1
LMJF.28.0490 PROPIONYL-COA C[…] CHAIN, PUTATIVE
  fold change: 0.63
LMJF.29.0940 HY[…], CONSERVED
  fold change: 1.08
LMJF.29.1310 CARNITINE/CHOLINE ACETYLTRANSFERASE, PUTATIVE
  fold change: 0.86
LMJF.29.1470 HY[…], CONSERVED
  fold change: 0.86
LMJF.29.2440 HY[…], CONSERVED
  fold change: 1.01
LMJF.30.2350 SPHINGOSINE 1-PHOSPHATE LYASE
  fold change: 1.2
LMJF.30.2970 GLYCERALDEHYDE 3-PHOSPHATE DEHYDROGENASE, GLYCOSOMAL
  fold change: 1.09
LMJF.30.3390 CAS/CSE/IMPORTIN DOMAIN PROTEIN, PUTATIVE
  fold change: 0.98
LMJF.31.2650 ACETOIN DEHYDROGENASE E3 COMPONENT-LIKE PROTEIN
  fold change: 0.96
LMJF.31.2970 ACETYL-COA CARBOXYLASE, PUTATIVE
  fold change: 0.89
LMJF.33.1030 HY[…], CONSERVED
  fold change: 0.88
LMJF.35.5040 polyadenylate-binding protein 1
  fold change: 0.88
LMJF.35.5250 ALPHA-1,2-MANNOSYLTRANSFERASE, PUTATIVE
  fold change: 0.83
LMJF.36.5100 HY[…], CONSERVED
  fold change: 1.03
LMJF.[…] RIBOSOMAL PROTEIN S7, PUTATIVE
  fold change: 1.35
Protein LINJ.03.0940 HY[…], CONSERVED
  fold change vs vehicle control: 1.07
Protein LINJ.09.0030 HY[…], CONSERVED
  fold change vs vehicle control: 0.7
Protein LINJ.11.0780 40S RIBOSOMAL PROTEIN S21, PUTATIVE
  fold change relative to vehicle control: 1.32
Protein LINJ.13.0990 […] SUBUNIT 2, PUTATIVE
  fold change: 0.91
Protein LINJ.13.1460 ALPHA TUBULIN
  fold change vs vehicle control: 0.98
Protein LINJ.15.0090 HEAT SHOCK PROTEIN HSLVU, ATPASE SUBUNIT HSLU, PUTATIVE
  fold change: 0.88
Protein LINJ.16.1380 […], PUTATIVE
  fold change relative to vehicle control: 0.96
Protein LINJ.19.0300 RNA BINDING PROTEIN
  fold change vs vehicle control: 1.22
Protein LINJ.20.0630 CYTIDINE TR[…], PUTATIVE
  fold change: 1.05
Protein LINJ.20.1390 COATOMER BETA SUBUNIT, PUTATIVE
  fold change relative to vehicle control: 0.93
Protein LINJ.21.1310 40S RIBOSOMAL PROTEIN S23, PUTATIVE
  fold change vs vehicle control: 1.16
Protein LINJ.23.1680 HY[…], CONSERVED
  fold change vs vehicle control: 1.1
Protein LINJ.25.1170 […] OXIDASE VII, PUTATIVE
  fold change vs vehicle control: 1.01
Protein LINJ.25.1220 RIBOSOMAL PROTEIN S25
  fold change relative to vehicle control: 1.27
Protein LINJ.26.1080 HY[…], CONSERVED
  fold change vs vehicle control: 1.08
Protein LINJ.27.1140 HY[…], CONSERVED
  fold change vs vehicle control: 1.02
Protein LINJ.28.1100 RIBOSOMAL PROTEIN S20, PUTATIVE
  fold change vs vehicle control: 0.97
Protein LINJ.28.1940 R[…] A, 51KDA SUBUNIT, PUTATIVE
  fold change relative to vehicle control: 1.1
Protein LINJ.31.2350 ADP-RI[…], PUTATIVE
  fold change: 1.09
Protein LINJ.34.0670 […]-ATP-ASE SUBUNIT 11, PUTATIVE
  fold change vs vehicle control: 0.75
Protein LINJ.35.0410 40S RIBOSOMAL PROTEIN S3A, PUTATIVE
  fold change: 1.1
Protein LINJ.35.0780 CBS DOMAIN PROTEIN, CONSERVED
  fold change relative to vehicle control: 1.01
Protein LINJ.36.0510 HY[…], CONSERVED
  fold change vs vehicle control: 0.99
Protein LINJ.36.3940 40S RIBOSOMAL PROTEIN S27-1, PUTATIVE
  fold change vs vehicle control: 0.88
Protein LINJ.36.4180 HS1VU COMPLEX P[…]-LIKE
  fold change: 0.87
Protein LINJ.36.7350 […] OXIDASE SUBUNIT I
  fold change: 0.96
Protein LMJF.01.0520 LONG-CHAIN-FATTY-ACID-COA LIGASE, PUTATIVE
  fold change: 0.91
Protein LMJF.02.0460 HY[…], CONSERVED
  fold change vs vehicle control: 1.05
Protein LMJF.03.0230 LONG CHAIN FATTY ACYL COA SYNTHETASE, PUTATIVE
  fold change vs vehicle control: 0.98
Protein LMJF.03.0630 HY[…], CONSERVED
  fold change vs vehicle control: 0.95
Protein LMJF.05.0780 HY[…], CONSERVED
  fold change: 1.06
Protein LMJF.06.0010 HISTONE H4
  fold change: 1.11
Protein LMJF.06.0140 […] 6 SUBUNIT, PUTATIVE
  fold change: 0.69
Protein LMJF.06.0650 […], PUTATIVE
  fold change: 1
Protein LMJF.08.0510 RIBOSE-PHOSPHATE PYROPHOSPHOKINASE, PUTATIVE
  fold change vs vehicle control: 0.99
Protein LMJF.08.0550 T[…]-LIKE PROTEIN
  fold change vs vehicle control: 1.01
Protein LMJF.08.1100 HY[…], CONSERVED
  fold change vs vehicle control: 0.98
Protein LMJF.09.1120 MIT[…] BINDING PROTEIN 2,MRP2, GBP25
  fold change relative to vehicle control: 1.01
Protein LMJF.09.1260 HY[…], CONSERVED
  fold change vs vehicle control: 0.98
Protein LMJF.10.1010 NUCLEOSIDE PHOSPHORYLASE-LIKE PROTEIN
  fold change: 0.97
Protein LMJF.10.1240 HY[…], CONSERVED
  fold change: 0.91
Protein LMJF.11.0130 NGG1 I[…] 3-LIKE PROTEIN
  fold change vs vehicle control: 0.94
Protein LMJF.11.0240 […] 7 SUBUNIT, PUTATIVE
  fold change vs vehicle control: 1.1
Protein LMJF.11.1050 PRETRA[…], ALPHA SUBUNIT, PUTATIVE
  fold change: 1.24
Protein LMJF.11.1110 60S RIBOSOMAL PROTEIN L28, PUTATIVE
  fold change vs vehicle control: 1.17
Protein LMJF.12.0210 […] […]1L8 3, PUTATIVE
  fold change vs vehicle control: 1.07
Protein LMJF.12.0280 ORNITHINE DECARBOXYLASE, PUTATIVE
  fold change vs vehicle control: 1
Protein LMJF.13.0450 HY[…], CONSERVED
  fold change vs vehicle control: 0.93
Protein LMJF.13.0870 MIT[…] ALPHA SUBUNIT, PUTATIVE
  fold change vs vehicle control: 1.33
Protein LMJF.14.0130 INOSINE-GUANINE […], PUTATIVE
  fold change vs vehicle control: 0.93
Protein LMJF.14.0310 […] 3 SUBUNIT, PUTATIVE
  fold change: 0.98
Protein LMJF.14.0650 FATTY ACID ELONGASE, PUTATIVE
  fold change: 1.11
Protein LMJF.14.0660 FATTY ACID ELONGASE, PUTATIVE
  fold change: 1.17
Protein LMJF.14.0705 FATTY ACID ELONGASE, PUTATIVE
  fold change: 1.24
Protein LMJF.14.0740 FATTY ACID ELONGASE, PUTATIVE
  fold change: 1.23
Protein LMJF.14.1120 KINESIN K39, PUTATIVE
  fold change relative to vehicle control: 1.49
Protein LMJF.15.0230 LYSYL-TRNA SYNTHETASE, PUTATIVE
  fold change vs vehicle control: 1.01
Protein LMJF.15.0280 RIBONUCLEOPROTEIN P18, MIT[…], PUTATIVE
  fold change vs vehicle control: 0.99
Protein LMJF.15.1010 GLUTAMATE DEHYDROGENASE
  fold change: 1.08
Protein LMJF.16.0520 HY[…], CONSERVED
  fold change relative to vehicle control: 1.36
Protein LMJF.16.0540 ASPARTATE […], PUTATIVE
  fold change: 1.04
Protein LMJF.16.0950 SUCROSE-PHOSPHATE SYNTHASE-LIKE PROTEIN
  fold change vs vehicle control: 1.31
Protein LMJF.16.0960 HY[…], CONSERVED
  fold change vs vehicle control: 0.93
Protein LMJF.16.1180 COATOMER DELTA SUBUNIT-LIKE PROTEIN
  fold change: 1.08
Protein LMJF.17.0010 HY[…], CONSERVED
  fold change: 1.07
Protein LMJF.18.0510 ACONITASE, PUTATIVE
  fold change vs vehicle control: 1.01
Protein LMJF.18.0890 RAB7 GTP BINDING PROTEIN, PUTATIVE
  fold change vs vehicle control: 0.91
Protein LMJF.18.1130 RAS-RELATED PROTEIN RAB-5, PUTATIVE
  fold change: 1
Protein LMJF.19.1120 […]-ATP-ASE SUBUNIT, PUTATIVE
  fold change: 0.82
Protein LMJF.19.1160 HY[…], CONSERVED
  fold change vs vehicle control: 3.16
Protein LMJF.19.1530 PEPT[…]-LIKE PROTEIN
  fold change vs vehicle control: 1.01
Protein LMJF.20.0100 PHOSPH[…] C, GLYCOSOMAL
  fold change: 1.01
Protein LMJF.21.0720 HY[…], CONSERVED
  fold change vs vehicle control: 0.93
Protein LMJF.21.1250 ADENYLATE KINASE, PUTATIVE
  fold change: 0.71
Protein LMJF.21.1555 HY[…], CONSERVED
  fold change: 1.05
Protein LMJF.21.1580 HY[…], UNKNOWN FUNCTION
  fold change: 1.2
Protein LMJF.21.1700 […] 2 SUBUNIT, PUTATIVE
  fold change vs vehicle control: 1.03
Protein LMJF.22.0230 AMINO ACID PERMEASE, PUTATIVE
  fold change: 1.26
Protein LMJF.22.0570 […] SUBUNIT 1, PUTATIVE
  fold change: 0.99
